Measurements taken from ChEMBL document CHEMBL4842361, “Design, synthesis and biological activities of benzo[d]imidazo[1,2-a]imidazole derivatives as TRPM2-specfic inhibitors” (Eur J Med Chem, 2021).
pIC50: −log10 of the molar value. Active and inactive are the calls of the source. The calls are words filed in the database; no cut-off is given here.

What was measured:
[1] = molecular target: T1, Transient receptor potential cation channel subfamily M member 2 (Homo sapiens, UniProt O94759); experiment: Inhibition of human TRPM2 expressed in HEK293T cells cotransfected with GFP assessed as reduction in ADPR-induced current at 10 uM by whole cell patch-clamp method relative to control; format: cell-based
T1 sequence (O94759 whole entry): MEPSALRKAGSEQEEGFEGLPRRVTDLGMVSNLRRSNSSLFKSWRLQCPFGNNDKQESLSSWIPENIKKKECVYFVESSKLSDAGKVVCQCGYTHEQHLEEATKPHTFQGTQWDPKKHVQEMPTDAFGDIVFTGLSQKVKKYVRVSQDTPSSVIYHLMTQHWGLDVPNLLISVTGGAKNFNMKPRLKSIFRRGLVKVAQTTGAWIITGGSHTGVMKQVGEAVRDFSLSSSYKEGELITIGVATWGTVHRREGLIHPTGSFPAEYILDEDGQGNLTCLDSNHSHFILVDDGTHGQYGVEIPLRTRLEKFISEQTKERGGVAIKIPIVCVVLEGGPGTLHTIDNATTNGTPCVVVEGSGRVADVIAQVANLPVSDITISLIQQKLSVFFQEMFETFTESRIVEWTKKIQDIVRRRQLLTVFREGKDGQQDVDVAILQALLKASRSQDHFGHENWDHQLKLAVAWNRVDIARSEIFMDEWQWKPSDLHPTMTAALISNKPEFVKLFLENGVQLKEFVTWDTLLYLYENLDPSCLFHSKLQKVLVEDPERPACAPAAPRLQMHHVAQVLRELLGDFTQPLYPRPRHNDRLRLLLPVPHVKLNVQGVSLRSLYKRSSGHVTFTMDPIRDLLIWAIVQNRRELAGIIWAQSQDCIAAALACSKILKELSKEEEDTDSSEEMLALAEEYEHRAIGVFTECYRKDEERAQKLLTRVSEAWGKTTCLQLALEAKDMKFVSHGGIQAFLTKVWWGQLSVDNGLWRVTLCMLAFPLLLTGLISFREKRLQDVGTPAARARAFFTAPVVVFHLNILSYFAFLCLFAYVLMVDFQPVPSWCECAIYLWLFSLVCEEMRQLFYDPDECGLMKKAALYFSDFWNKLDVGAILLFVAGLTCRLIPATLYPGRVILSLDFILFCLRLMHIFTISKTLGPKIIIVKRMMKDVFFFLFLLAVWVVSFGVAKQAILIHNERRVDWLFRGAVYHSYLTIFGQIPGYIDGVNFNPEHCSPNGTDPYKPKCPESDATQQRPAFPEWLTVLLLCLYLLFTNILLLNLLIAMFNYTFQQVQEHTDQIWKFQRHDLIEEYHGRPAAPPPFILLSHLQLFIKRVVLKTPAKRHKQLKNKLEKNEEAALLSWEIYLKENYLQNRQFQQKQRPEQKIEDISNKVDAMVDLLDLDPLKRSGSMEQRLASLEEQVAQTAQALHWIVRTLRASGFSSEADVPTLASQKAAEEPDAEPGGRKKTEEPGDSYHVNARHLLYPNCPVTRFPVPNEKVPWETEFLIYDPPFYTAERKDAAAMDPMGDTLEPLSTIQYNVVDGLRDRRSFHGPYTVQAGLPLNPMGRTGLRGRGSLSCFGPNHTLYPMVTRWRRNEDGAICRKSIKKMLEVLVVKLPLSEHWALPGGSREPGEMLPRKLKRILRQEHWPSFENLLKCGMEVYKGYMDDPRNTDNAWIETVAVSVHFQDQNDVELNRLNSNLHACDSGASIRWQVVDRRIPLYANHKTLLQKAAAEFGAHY

[2] = molecular target: T1, Transient receptor potential cation channel subfamily M member 2; experiment: Inhibition of human TRPM2 expressed in HEK293T cells cotransfected with GFP assessed as reduction in ADPR-induced current at 30 uM by whole cell patch-clamp method relative to control; format: cell-based
SH-SY5Y [3] = experiment: Neuroprotection against H202-induced cell death in human SH-SY5Y cells assessed as increase in cell viability at 100 uM after 24 hrs by CCK8 assay; format: functional, cell-based
[4] = molecular target: Transient receptor potential cation channel subfamily V member 1 (Homo sapiens) (UniProt Q8NER1); experiment: Inhibition of TRPV1 (unknown origin) assessed as inhibition of capsaicin-induced current at 30 uM by whole cell patch-clamp method relative to control
Chain of Transient receptor potential cation channel subfamily V member 1 (Homo sapiens) (Q8NER1 whole entry): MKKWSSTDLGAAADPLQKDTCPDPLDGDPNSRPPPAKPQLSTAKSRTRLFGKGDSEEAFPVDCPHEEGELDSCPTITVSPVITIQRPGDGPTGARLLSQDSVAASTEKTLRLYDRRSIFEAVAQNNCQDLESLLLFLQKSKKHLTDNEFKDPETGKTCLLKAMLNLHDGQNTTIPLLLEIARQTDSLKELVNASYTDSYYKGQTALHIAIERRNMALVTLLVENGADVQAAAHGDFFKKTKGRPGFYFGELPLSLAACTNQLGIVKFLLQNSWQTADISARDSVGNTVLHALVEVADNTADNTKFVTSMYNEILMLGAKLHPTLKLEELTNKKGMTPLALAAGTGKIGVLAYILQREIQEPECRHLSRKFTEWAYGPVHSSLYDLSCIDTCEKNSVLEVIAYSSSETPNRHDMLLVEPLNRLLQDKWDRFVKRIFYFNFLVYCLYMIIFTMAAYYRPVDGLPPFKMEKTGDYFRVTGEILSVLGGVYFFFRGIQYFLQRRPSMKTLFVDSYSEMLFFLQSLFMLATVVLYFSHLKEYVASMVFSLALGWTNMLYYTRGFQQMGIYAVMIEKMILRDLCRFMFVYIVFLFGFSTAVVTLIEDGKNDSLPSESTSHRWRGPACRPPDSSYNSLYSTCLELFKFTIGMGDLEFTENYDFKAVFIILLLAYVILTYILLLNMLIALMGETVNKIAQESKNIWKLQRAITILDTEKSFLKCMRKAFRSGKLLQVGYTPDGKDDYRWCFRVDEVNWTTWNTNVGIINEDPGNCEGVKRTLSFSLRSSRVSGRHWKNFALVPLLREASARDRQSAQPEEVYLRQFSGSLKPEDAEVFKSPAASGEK

[5] = molecular target: Transient receptor potential cation channel subfamily M member 8 (Rattus norvegicus) (UniProt Q8R455); experiment: Inhibition of rat TRPM8 expressed in HEK293T cells cotransfected with GFP assessed as inhibition of […]-induced current at 30 uM by whole cell patch-clamp method relative to control; format: cell-based
Chain of Transient receptor potential cation channel subfamily M member 8 (Rattus norvegicus) (Q8R455 whole entry, looked up): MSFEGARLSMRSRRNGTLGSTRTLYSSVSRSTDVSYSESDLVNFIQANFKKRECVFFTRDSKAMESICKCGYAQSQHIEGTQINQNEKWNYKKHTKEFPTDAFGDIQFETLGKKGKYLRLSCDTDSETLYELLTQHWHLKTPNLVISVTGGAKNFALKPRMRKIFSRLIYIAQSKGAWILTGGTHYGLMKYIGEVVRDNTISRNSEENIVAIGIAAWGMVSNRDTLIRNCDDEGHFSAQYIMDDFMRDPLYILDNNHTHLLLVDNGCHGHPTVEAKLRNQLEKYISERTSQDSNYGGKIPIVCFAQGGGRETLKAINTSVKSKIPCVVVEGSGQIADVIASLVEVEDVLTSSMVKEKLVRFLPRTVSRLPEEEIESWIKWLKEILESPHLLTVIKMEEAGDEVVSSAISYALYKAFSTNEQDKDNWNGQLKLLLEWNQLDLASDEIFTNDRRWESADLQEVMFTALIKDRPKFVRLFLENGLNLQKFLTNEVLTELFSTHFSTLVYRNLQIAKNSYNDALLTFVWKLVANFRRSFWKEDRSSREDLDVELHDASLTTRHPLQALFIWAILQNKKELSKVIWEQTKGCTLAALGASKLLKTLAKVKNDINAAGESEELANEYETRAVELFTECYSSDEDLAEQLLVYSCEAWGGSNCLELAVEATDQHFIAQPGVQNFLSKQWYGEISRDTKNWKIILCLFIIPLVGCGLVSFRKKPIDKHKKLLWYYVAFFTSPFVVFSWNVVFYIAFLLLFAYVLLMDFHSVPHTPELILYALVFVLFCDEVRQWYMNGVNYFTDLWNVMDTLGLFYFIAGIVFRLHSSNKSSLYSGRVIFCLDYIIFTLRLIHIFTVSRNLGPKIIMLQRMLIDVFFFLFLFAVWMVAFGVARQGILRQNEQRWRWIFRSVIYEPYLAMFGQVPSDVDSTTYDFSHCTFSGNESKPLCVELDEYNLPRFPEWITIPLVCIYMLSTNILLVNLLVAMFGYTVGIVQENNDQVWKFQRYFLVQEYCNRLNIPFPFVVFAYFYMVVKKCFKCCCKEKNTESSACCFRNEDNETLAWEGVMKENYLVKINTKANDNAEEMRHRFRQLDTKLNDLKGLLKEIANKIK

SH-SY5Y [6] = experiment: Cytotoxicity against human SH-SY5Y cells at 30 uM measured after 24 hrs by CCK-8 assay; format: cell-based
[7] = molecular target: T1, Transient receptor potential cation channel subfamily M member 2; experiment: Inhibition of human TRPM2 expressed in HEK293T cells cotransfected with GFP assessed as reduction in ADPR-induced current by whole cell patch-clamp method; format: cell-based
SH-SY5Y [8] = experiment: Neuroprotection against H202-induced cell death in TRPM2 knockdown human SH-SY5Y cells assessed as increase in cell viability at 100 uM after 24 hrs by CCK8 assay; format: functional, cell-based

Row | SMILES | inhibition [1] | inhibition [2] | Activity (SH-SY5Y [3]) | inhibition [4] | inhibition [5] | Activity (SH-SY5Y [6]) | pIC50 [7] | Activity (SH-SY5Y [8])
1 | CCN(CC)CCn1c2ccccc2n2c(C(C)=O)c(C)nc12 | 50% | – | – | – | – | – | – | –
2 | CCN(CC)CCn1c2ccccc2n2c(C(=O)c3ccc(-c4ccccc4)cc3)c(C)nc12 | – | 90% | Active | 40% | 26% | Non-Toxic | 5.21 | inactive
3 | CCN(CC)CCn1c2ccccc2n2c(C(=O)c3cc4ccccc4o3)c(C)nc12 | – | 90% | Active | 22% | 36% | Non-Toxic | 5.09 | inactive
